# Data as given in patent US20070244154A1, “Substituted Tricyclic Benzimidazoles” (Altana Pharma AG, priority 2004, published 2007).
# Tests used:
# [1] = test system: pentagastrin-stimulated acid secretion of the perfused rat stomach; test: Secretion-inhibiting action on the perfused rat stomach; details: anesthetized female CD rat, dose 3 μmol/kg i.d. (intraduodenal)
# Source text: Testing of the Secretion-Inhibiting Action on the Perfused Rat Stomach
# In Table A which follows, the influence of the compounds of the formula 1 according to the invention on the pentagastrin-stimulated acid secretion of the perfused rat stomach after intraduodenal admnistation in vivo is shown.
# The abdomen of anesthetized rats (CD rat, female, 200-250 g; 1.5 g/kg i.m. urethane) was opened after tracheotomy by a median upper abdominal incision and a PVC catheter was fixed transorally in the esophagus and another via the pylorus such that the ends of the tubes just projected into the gastric lumen. The catheter leading from the pylorus led outward into the right abdominal wall through a side opening.
# After thorough rinsing (about 50-100 ml), warm (37° C.) physiological NaCl solution was continuously passed through the stomach (0.5 ml/min, pH 6.8-6.9; Braun-Unita I). The pH (pH meter 632, glass electrode EA 147; φ=5 mm, Metrohm) and, by titration with a freshly prepared 0.01N NaOH solution to pH 7 (Dosimat 665 Metrohm), the secreted HCl were determined in the effluent in each case collected at an internal of 15 minutes.
# The gastric secretion was stimulated by continuous infusion of […] (=1.65 ml/h) of i.v. pentagastrin (left femoral vein) about 30 min after the end of the operation (i.e. after determination of 2 preliminary fractions). The substances to be tested were administered intraduodenally in a 2.5 ml/kg liquid volume 60 min after the start of the continuous pentagastrin infusion. The body temperature of the animals was kept at a constant 37.8-38° C. by infrared irradiation and heat pads (automatic, stepless control by means of a rectal temperature sensor).
melting point,Structure (SMILES),inhibition in vivo at 3 µmol/kg [1]
–,"CNC(=O)c1cc2c(nc(C)n2C)c2c1[C@H](O)[C@H](O)[C@@H](c1ccccc1)N2 [Example 1, (6S,7R,8R)-[6,7,8,9-Tetrahydro-6,7-dihydroxy-2,3-dimethyl-8-phenyl-3H-imidazo[4,5-h]quinoline-5-yl]-carboxylic acid methylamide]",> 15%
–,"CNC(=O)c1cc2c(nc(C)n2C)c2c1[C@@H](O)[C@H](O)[C@@H](c1ccccc1)N2 [Example 2, (6R,7R,8R)-[6,7,8,9-Tetrahydro-6,7-dihydroxy-2,3-dimethyl-8-phenyl-3H-imidazo[4,5-h]quinoline-5-yl]-carboxylic acid methylamide]",> 15%
–,"CCCCO[C@H]1c2c(C(=O)NC)cc3c(nc(C)n3C)c2N[C@H](c2ccccc2)[C@H]1O [Example 3, (6S,7R,8R)-[6-n-butyloxy-6,7,8,9-tetrahydro-7-hydroxy-2,3-dimethyl-8-phenyl-3H-imidazo[4,5-h]quinoline-5-yl]-carboxylic acid methylamide]",> 15%
–,"CCCCO[C@@H]1c2c(C(=O)NC)cc3c(nc(C)n3C)c2N[C@H](c2ccccc2)[C@H]1O [Example 4, (6R,7R,8R)-[6-n-butyloxy-6,7,8,9-tetrahydro-7-hydroxy-2,3-dimethyl-8-phenyl-3H-imidazo[4,5-h]quinoline-5-yl]-carboxylic acid methylamide]",> 15%
–,"C#CCO[C@H]1c2c(C(=O)NC)cc3c(nc(C)n3C)c2N[C@H](c2ccccc2)[C@H]1O [Example 7, (6S,7R,8R)-[6,7,8,9-Tetrahydro-7-hydroxy-2,3-dimethyl-8-phenyl-6-propargyloxy-3H-imidazo[4,5-h]quinoline-5-yl]-carboxylic acid methylamide]",> 15%
–,"CNC(=O)c1cc2c(nc(C)n2C)c2c1[C@@H](CC(F)F)[C@@H](O)[C@@H](c1ccccc1)N2 [Example 10, (6R,7R,8R)-[7-Hydroxy-2,3-dimethyl-8-phenyl-6-(2,2-difluoroethyl)-6,7,8,9-tetrahydro-3H-imidazo[4,5-h]quinoline-5-yl]-carboxylic acid methylamide]",> 15%
265 to 268 °C,"CNC(=O)c1cc2c(nc(C)n2C)c2c1C[C@@H](O)[C@@H](c1ccccc1)N2 [Example 11, (7R,8R)-[7-Hydroxy-2,3-dimethyl-8-phenyl-6,7,8,9-tetrahydro-3H-imidazo[4,5-h]quinoline-5-yl]-carboxylic acid methylamide]",> 15%
–,"Cc1nc2c3c(c(C(=O)N(C)C)cc2n1C)C(O)[C@H](O)[C@@H](c1ccccc1)N3 (stereo partly drawn) [Example 12, (7R,8R)-[6,7-Dihydroxy-2,3-dimethyl-8-phenyl-6,7,8,9-tetrahydro-3H-imidazo[4,5-h]quinoline-5-yl]carboxylic acid dimethylamide]",> 15%
–,"CCCCO[C@H]1c2c(C(=O)N(C)C)cc3c(nc(C)n3C)c2N[C@H](c2ccccc2)[C@H]1O [Example 13, (6S,7R,8R)-[6-n-Butyloxy-7-hydroxy-2,3-dimethyl-8-phenyl-6,7,8,9-tetrahydro-3H-imidazo[4,5-h]quinoline-5-yl]-carboxylic acid dimethylamide]",> 15%
–,"CCCCO[C@@H]1c2c(C(=O)N(C)C)cc3c(nc(C)n3C)c2N[C@H](c2ccccc2)[C@H]1O [Example 14, (6R,7R,8R)-[6-n-Butyloxy-7-hydroxy-2,3-dimethyl-8-phenyl-6,7,8,9-tetrahydro-3H-imidazo[4,5-h]quinoline-5-yl]-carboxylic acid dimethylamide]",> 15%
–,"Cc1nc2c3c(c(C(=O)N(C)C)cc2n1C)C[C@@H](O)[C@@H](c1ccccc1)N3 [Example 15, (7R,8R)-[7-Hydroxy-2,3-dimethyl-8-phenyl-6,7,8,9-tetrahydro-3H-imidazo[4,5-h]quinoline-5-yl]-carboxylic acid dimethylamide]",> 15%
